These results are taken from patent US8575145B2, “Triazolopyridine compounds as PIM kinase inhibitors” (Array BioPharma Inc., priority 2008, dated 2013).

Where a name gives a salt, the structure may show the parent alone.

Holding throughout (format): in vivo, mouse
In one test the test system is MRL/MpJ-Fas<lpr> mice. The test is described as follows: MRL/lpr Lupus Model. The following applies: 200 mg/kg twice daily. The text has this:
MRL/lpr is considered to be an animal model of systemic lupus erythematosus (SLE), an autoimmune disease (Cohen and Maldonado 2003, Current Protocols in Immunology Chapter 15, Unit 15.20). MRL/lpr mice have a defect in the apoptosis of activated lymphocytes and over time develop a spontaneous and severe lymphoproliferative disorder characterized by enlarged lymphoid organs, auto-antibody production and kidney disease resulting in proteinuria. […] To determine the effect of compounds of Formula I in this model of SLE, the following experiment was conducted.
MRL/MpJ-Fasand age-matched MRL/MpJ control mice (Jackson Laboratories, catalog #000485 and #000486, respectively) were treated once daily with vehicle (1% CMC/0.5% Tween 80) or twice daily with the compound of Example 26 (200 mg/kg) for 10 weeks. Body weights, lymphadenopathy and urine protein levels were monitored weekly. Urine protein levels were determined with Bayer Albustix dipsticks (Bayer catalog #2191) and scored according to the following scale:
Serum levels of anti-ds-DNA antibody were measured by ELISA (Alpha Diagnostic, catalog #5120) on Day 28 and upon study termination. ELISA plates were quantitated using a Molecular Devices Versamax plate reader at […] and titers calculated relative using to a standard curve using a 4-parameter curve fit with Softmax Pro software.

The subject of test [1] is C.B17/Icr-Prkdc^scid/IcrIcoCrl mice, adoptive transfer model of IBD. The test is described as follows: CD4+CD45RBhi Adoptive Transfer Inflammatory Bowel Disease. The following applies: 200 mg/kg oral twice daily, 21 days of treatment. Here is the method:
On Day 0, CD4+ T cells were isolated from the spleens of female Balb/cAnNCrl mice (Charles River Laboratories; 12 weeks old) as described in Example E. The resulting cells were labeled with fluorescent antibodies against CD4 and CD45 markers and were sorted by flow cytometry for CD4+CD45RBhi cells based on fluorescence. 400,000 CD4+CD45RBhi cells were then injected intraperitoneally into C.B17/Icr-Prkdc^scid/IcrIcoCrl mice (Charles River Laboratories strain code 236; 12 weeks old). This injection of cells is known to those skilled in the art as adoptive transfer. […]
For each H&E stained section, submucosal edema was quantitated by measuring the distance from the muscularis mucosa to the internal border of the outer muscle layer in a non-tangential area thought to most representative the severity of this change. Mucosal thickness was also measured in a non-tangential area of the section that best represented the overall mucosal thickness. […]
The parameters reflecting epithelial cell loss/damage were scored individually using a % area involved scoring method: […]
The three scored parameters (inflammation, glandular epithelial loss, and erosion) were ultimately summed to arrive at a sum of histopathology scores, which indicates the overall damage and would have a maximum score of 15.

Test [2] has as its system C57BL/6 recipient mice, adoptive transfer EAE model. The test is described as follows: Adoptive Transfer Experimental Autoimmune Encephalomyelitis. The following applies: 200 mg/kg oral gavage twice daily for 26 days. As for the experimental part: Having observed that compounds of Formula I inhibit T cell activation in vitro and in vivo, the effect of a compound of Formula I on an autoimmune disease induced by T cells was determined using an adoptive transfer EAE model, an animal model of human multiple sclerosis (Brain (2006), 129, 1953-1971). This model relies on the injection of T cells from animals with EAE into disease-free host animals. This injection of cells is known to those skilled in the art as adoptive transfer. By injecting the animals with activated, encephalogenic T cells, this model is focused on the pathogenic stage of EAE autoimmune disease. On Day-14, C57BL/6 mice (Taconic Farms; 10 weeks old) were immunized with a disease-causing protein, MOG(35-55) peptide in complete Freund's adjuvant (Hooke Laboratories, catalog #EK-0113). On Day -3, spleens were harvested, single cell suspensions were prepared and then 5,000,000 cells/mL were stimulated with 20 μg/mL MOG(33-55) peptide (Open Biosystems), 30 ng/mL IL-12 (R&D Systems catalog #419-ML-010), 10 μg/mL anti-IFNγ antibody (BD Biosciences catalog #554408) at 37° C., 5% CO2. On Day 0, 1,500,000 of these cells were injected intravenously into the tail veins of C57BL/6 recipient mice. […] The recipient mice were scored daily days 0 through 26 using the following clinical scoring system: […]

Turning to `F[C@@H]1CNCCC1Oc1cccc2ccc(-c3nnc4ccccn34)nc12` (stereo in doubt) [Example 26, 2-([1,2,4]triazolo[4,3-a]pyridin-3-yl)-8-((cis)-3-fluoropiperidin-4-yloxy)quinoline dihydrochloride], the proteinuria over time result in the test with MRL/MpJ-Fas<lpr> mice (10 weeks, relative to vehicle control) was “prevents the development of proteinuria”. Besides, the “decrease in serum anti-dsDNA relative to vehicle control” value in the test on MRL/MpJ-Fas<lpr> mice (28 days) turned out to be 74%. Besides, the “decrease in serum anti-dsDNA antibodies relative to vehicle control” value in the test on MRL/MpJ-Fas<lpr> mice (study termination (79 days of dosing)) amounted to 99%. Further, in test [1], the “colon histopathology scores (inflammation, gland loss, erosion)” value is reported as “reduced severity of disease” and the “decrease in mucosal thickening relative to vehicle” value was 84%. The “disease onset (first of 2 consecutive days with clinical score >= 1)” value in test [2] was “significant delay in disease onset”. Besides, the “median day of onset” value in test [2] (untreated and vehicle groups day 6) was 11 days.
